Assay [1] concerns the target Neuronal acetylcholine receptor. Put plainly: Binding affinity towards rat forebrain nicotinic acetylcholine receptor using [3H]EB as radioligand.
A short description of assay [2]: Ratio between the binding affinities towards rat alpha3-beta4 and alpha3-beta2 nACh receptor using [3H]EB as radioligand.
Assay [3] concerns the target Neuronal acetylcholine receptor; alpha3/beta4 (Rattus norvegicus, UniProt P04757+P12392). Put plainly: Binding affinity towards rat Nicotinic acetylcholine receptor alpha3-beta4 expressed in HEK293 cells using [3H]EB as radioligand. Format: cell-based.
Assay [4] is described as follows: Ratio between the binding affinities towards rat alpha3-beta4 and forebrain nACh receptor using [3H]EB as radioligand.
Assay [5] is described as follows: Ratio between the binding affinities towards rat alpha4-beta4 and alpha4-beta2 nACh receptor using [3H]EB as radioligand.
The target of assay [6] is Neuronal acetylcholine receptor; alpha3/beta2 (Rattus norvegicus, UniProt P04757+P12390). As to the kind of experiment: Binding affinity towards rat Nicotinic acetylcholine receptor alpha3-beta2 expressed in HEK293 cells using [3H]EB as radioligand. It is filed as cell-based.
Chain of Neuronal acetylcholine receptor; alpha3/beta2 (P04757 whole entry): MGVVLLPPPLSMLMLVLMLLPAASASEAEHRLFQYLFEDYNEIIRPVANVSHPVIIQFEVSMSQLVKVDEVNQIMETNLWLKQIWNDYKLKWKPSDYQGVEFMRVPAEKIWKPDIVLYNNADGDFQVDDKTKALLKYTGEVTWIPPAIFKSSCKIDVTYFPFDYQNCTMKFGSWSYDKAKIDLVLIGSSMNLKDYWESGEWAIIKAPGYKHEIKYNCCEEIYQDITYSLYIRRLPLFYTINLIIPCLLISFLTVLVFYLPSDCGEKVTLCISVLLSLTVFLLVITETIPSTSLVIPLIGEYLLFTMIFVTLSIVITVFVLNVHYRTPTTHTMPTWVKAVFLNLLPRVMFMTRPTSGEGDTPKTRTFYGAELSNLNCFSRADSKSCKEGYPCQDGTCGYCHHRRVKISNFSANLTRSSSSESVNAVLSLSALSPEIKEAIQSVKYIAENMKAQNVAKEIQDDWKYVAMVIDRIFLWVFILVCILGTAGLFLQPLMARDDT
Chain of Neuronal acetylcholine receptor; alpha3/beta2 (P12390 whole entry): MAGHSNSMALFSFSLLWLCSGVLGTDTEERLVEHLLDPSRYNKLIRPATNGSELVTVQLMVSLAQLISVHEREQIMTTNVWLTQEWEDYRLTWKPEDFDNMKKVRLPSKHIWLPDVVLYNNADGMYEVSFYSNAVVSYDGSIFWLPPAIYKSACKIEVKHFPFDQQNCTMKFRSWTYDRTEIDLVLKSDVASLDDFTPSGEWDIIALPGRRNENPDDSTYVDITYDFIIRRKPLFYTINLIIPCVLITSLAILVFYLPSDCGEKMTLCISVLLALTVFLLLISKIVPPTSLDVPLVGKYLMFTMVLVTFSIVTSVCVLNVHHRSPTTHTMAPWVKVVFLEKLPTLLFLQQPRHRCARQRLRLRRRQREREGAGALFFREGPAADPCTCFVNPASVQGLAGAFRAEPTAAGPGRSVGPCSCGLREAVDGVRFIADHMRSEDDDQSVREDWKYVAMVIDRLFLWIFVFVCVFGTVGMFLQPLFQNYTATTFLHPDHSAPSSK
A short description of assay [7]: Ratio between the binding affinities towards rat alpha2-beta4 and alpha2-beta2 nACh receptor using [3H]-EB as radioligand.
Assay [8] can be described thus: Binding affinity towards rat alpha2-beta4 nACh receptor expressed in HEK293 cells using [3H]EB as radioligand. Format: cell-based.
Assay [9] has as its target Neuronal acetylcholine receptor; alpha4/beta2 (Rattus norvegicus, UniProt P09483+P12390). As to the kind of experiment: Binding affinity towards rat Nicotinic acetylcholine receptor alpha4-beta2 expressed in HEK293 cells using [3H]EB as radioligand. Format: cell-based.
In assay [10] the target is Neuronal acetylcholine receptor; alpha2/beta2 (Rattus norvegicus, UniProt P12389+P12390). Put plainly: Binding affinity towards rat nicotinic acetylcholine receptor alpha2-beta2 expressed in HEK293 cells using [3H]EB as radioligand. It is filed as cell-based.
Chain of Neuronal acetylcholine receptor; alpha2/beta2 (P12389 whole entry): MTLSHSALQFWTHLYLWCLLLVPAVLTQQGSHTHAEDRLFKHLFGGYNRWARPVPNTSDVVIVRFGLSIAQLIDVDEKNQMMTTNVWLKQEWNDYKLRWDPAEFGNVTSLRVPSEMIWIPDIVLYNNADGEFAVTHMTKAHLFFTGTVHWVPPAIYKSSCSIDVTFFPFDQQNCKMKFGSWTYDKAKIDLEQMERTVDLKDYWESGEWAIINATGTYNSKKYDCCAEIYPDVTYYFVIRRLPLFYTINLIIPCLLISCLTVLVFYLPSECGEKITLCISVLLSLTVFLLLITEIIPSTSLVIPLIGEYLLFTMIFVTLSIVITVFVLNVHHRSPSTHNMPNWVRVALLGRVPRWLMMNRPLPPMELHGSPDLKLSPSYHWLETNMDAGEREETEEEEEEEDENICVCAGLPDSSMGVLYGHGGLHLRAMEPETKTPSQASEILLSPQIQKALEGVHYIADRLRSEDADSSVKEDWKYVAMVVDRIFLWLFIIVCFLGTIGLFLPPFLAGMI
Chain of Neuronal acetylcholine receptor; alpha2/beta2 (P12390 whole entry): as the sequence (P12390 whole entry) above
In assay [11] the target is Neuronal acetylcholine receptor; alpha4/beta4 (Rattus norvegicus, UniProt P09483+P12392). Put plainly: Binding affinity towards rat Nicotinic acetylcholine receptor alpha4-beta4 expressed in HEK293 cells using [3H]EB as radioligand. It is filed as cell-based.
Chain of Neuronal acetylcholine receptor; alpha4/beta4 (P09483 whole entry): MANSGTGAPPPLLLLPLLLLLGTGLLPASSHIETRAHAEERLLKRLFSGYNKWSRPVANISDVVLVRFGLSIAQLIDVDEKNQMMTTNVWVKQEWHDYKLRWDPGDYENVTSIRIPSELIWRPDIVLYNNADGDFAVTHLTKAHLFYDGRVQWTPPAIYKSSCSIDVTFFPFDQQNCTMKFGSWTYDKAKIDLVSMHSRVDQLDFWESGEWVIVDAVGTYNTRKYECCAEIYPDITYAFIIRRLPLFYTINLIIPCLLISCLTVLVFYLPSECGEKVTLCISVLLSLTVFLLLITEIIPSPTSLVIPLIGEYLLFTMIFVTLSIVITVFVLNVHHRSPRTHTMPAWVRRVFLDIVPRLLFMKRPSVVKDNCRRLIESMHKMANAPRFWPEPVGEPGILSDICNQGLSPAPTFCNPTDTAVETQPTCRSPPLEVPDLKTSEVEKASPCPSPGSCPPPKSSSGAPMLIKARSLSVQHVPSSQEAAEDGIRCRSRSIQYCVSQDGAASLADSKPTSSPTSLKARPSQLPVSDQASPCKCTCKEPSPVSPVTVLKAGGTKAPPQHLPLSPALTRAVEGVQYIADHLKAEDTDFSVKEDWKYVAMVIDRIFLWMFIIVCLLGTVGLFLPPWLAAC
Chain of Neuronal acetylcholine receptor; alpha4/beta4 (P12392 whole entry): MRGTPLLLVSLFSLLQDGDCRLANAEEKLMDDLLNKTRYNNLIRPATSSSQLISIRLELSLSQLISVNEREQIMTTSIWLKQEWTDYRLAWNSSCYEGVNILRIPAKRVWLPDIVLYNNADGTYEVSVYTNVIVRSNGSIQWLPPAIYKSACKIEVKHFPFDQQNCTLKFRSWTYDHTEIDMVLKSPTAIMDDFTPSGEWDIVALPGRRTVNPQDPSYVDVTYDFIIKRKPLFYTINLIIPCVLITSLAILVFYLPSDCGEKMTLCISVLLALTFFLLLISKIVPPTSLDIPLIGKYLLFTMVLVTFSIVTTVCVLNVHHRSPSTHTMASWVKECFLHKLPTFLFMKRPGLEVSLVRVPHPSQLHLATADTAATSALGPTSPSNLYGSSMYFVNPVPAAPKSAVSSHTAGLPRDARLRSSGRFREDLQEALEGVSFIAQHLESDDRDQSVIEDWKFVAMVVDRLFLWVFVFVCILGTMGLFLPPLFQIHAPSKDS

pKi: −log10 of the molar value.

Chain of Neuronal acetylcholine receptor; alpha4/beta2 (P09483 whole entry): as the sequence (P09483 whole entry) above
Chain of Neuronal acetylcholine receptor; alpha4/beta2 (P12390 whole entry): as the sequence (P12390 whole entry) above
Chain of Neuronal acetylcholine receptor; alpha3/beta4 (P04757 whole entry): as the sequence (P04757 whole entry) above
Chain of Neuronal acetylcholine receptor; alpha3/beta4 (P12392 whole entry): as the sequence (P12392 whole entry) above

As for `Ic1cncc(O[C@H]2CCN2)c1`, the pKi in assay [1] is 9.85; in [3], 6.54; in assay [6], 9.38; in assay [8], 7.33; in assay [9], 10.21; in [10], 10.51. The pKi in assay [11] is 7.62. Further, the Ratio in assay [2] is 690; in [4] it was 2070; in assay [5], 387; in [7], 1520.

In the case of `c1cncc(OC[C@@H]2CCN2)c1`, the pKi was 7.14 in assay [3]; 9.62 in assay [6]; 7.77 in assay [8]; 9.85 in assay [9]; 10.13 in [10]; 8.15 in assay [11].

As for `Clc1ccc(C2CC3CCC2N3)cn1` (racemic; form 1) [EPIBATIDINE], in assay [8], the pKi is 10.06.

In turn, `Clc1ccc(C2CC3CCC2N3)cn1` (racemic; form 2) [EPIBATIDINE] gave a pKi in assay [8] of 9.89.

On to `CC(=O)OCC[N+](C)(C)C` [ACETYLCHOLINE], for which the negative-log Ki (pKi) in assay [8] is 6.74; in assay [10], 7.96.

In the case of `C[N+](C)(C)CCOC(N)=O` [CARBACHOL], the pKi in assay [3] is 5.32; in [6], 5.96; in assay [8], 6.19; in assay [9] it was 6.23; in [10] it was 6.68; in assay [11], 5.89.

Turning to `C[N+](C)(C)CCO` [CHOLINE], the pKi in assay [1] was 4.38; in assay [3] it was 4.32; in [6] it was 4.43; in assay [8], 4.68; in assay [9], 4.43; in assay [10] it was 4.74. This compound gave a pKi in [11] of 4.47. Moreover, the Ratio in assay [2], in [4], in [5] and in assay [7] was 1 each time.

Consider `O=c1cccc2n1C[C@@H]1CNC[C@H]2C1` [CYTISINICLINE], for which the pKi is 8.60 in [1]; 7.43 in assay [6]; 8.26 in assay [8]; 8.82 in assay [9]; 8.85 in assay [10]; 8.66 in assay [11]. The Ratio in assay [2] was found to be 6; in assay [4] it was 84; in assay [5] it was 1; in [7], 4.

`C[N+]1(C)CCN(c2ccccc2)CC1` [DIMETHYLPHENYLPIPERAZINIUM IODIDE]: the pKi in assay [3] is 6.10; in [6] it was 7.38; in assay [8] it was 5.89; in assay [10], 7.55.

The compound `CN1CCC[C@H]1c1cccnc1` [NICOTINE] gave a negative-log Ki (pKi) in assay [8] of 6.89.

Source of the values: ChEMBL document CHEMBL1147509, “Pharmacology of the agonist binding sites of rat neuronal nicotinic receptor subtypes expressed in HEK 293 cells” (Bioorg Med Chem Lett, 2004).
